The results in this text go back to the NIST ThermoML archive (doi:10.1016/j.fluid.2013.06.048).

“And” between values parts separate entries of the source, which are not always exact repeats. Equal entries are not always repeated. ± gives the expanded uncertainty stated by the source.

The conditions of the data set: Liquid; pulse-heating method.

On to `OCCCO` [propan-1,3-diol], for which the Critical pressure is 6380 ± 160 kPa and 6300 ± 200 kPa and 6550 ± 160 kPa; the Critical temperature was 721 ± 24 K and 722 ± 24 K and 718.2 ± 24 K. `OCCCCO` [1,4-butanediol]: the Critical pressure is 5400 ± 160 kPa and 6220 ± 160 kPa and 5520 ± 160 kPa; the Critical temperature was 728 ± 24 K and 727 ± 24 K and 723.8 ± 24 K.

As for `OCCCCCCCCCCCCO` [1,12-dihydroxydodecane], the Critical pressure worked out at 1930 ± 160 kPa and the Critical temperature was found to be 798 ± 24 K. Take `OCCCCCCO` [1,6-hexanediol]: the Critical pressure is 3400 ± 160 kPa and 4080 ± 160 kPa. For the molecule `OCCCCCCCCCO` [1,9-nonanediol], the Critical pressure is 2400 ± 160 kPa and the Critical temperature was found to be 760 ± 24 K. On to `OCCCCCCCCCCO` [1,10-decanediol], for which the Critical pressure is 2200 ± 160 kPa and the Critical temperature is recorded as 770 ± 24 K. Regarding `OCCCCCCCCO` [1,8-octanediol], the Critical pressure worked out at 2700 ± 160 kPa and the Critical temperature was 752 ± 24 K.

`OCCCCCO` [1,5-pentanediol]: the Critical pressure came out at 4000 ± 160 kPa and the Critical temperature is reported as 731 ± 24 K.
